{"source": "paper PMC10892719", "about": "(Pharmaceutics, 2024)", "origin": "cited, not measured here", "molecular_target": "T1, Aβ1-42 (Homo sapiens, UniProt P05067)", "T1 construct": "purchased Genecust, Boynes, France", "T1 sequence (P05067 672-713 limits assumed)": "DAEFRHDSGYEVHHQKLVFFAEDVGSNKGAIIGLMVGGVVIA", "settings": "thioflavin T fluorescence method; cited from earlier work"}
{"smiles": "COc1cc(/C=C/C(=O)CC(=O)/C=C/c2ccc(O)c(OC)c2)ccc1O", "note": "[Curcumin, curcumin]", "values": [{"measurement": "Aβ42 Self-Aggreg. Inhib", "value": 65.7, "unit": "%"}]}
